Results from US12686692B2, “KRas G12D inhibitors” (Mirati Therapeutics, Inc., priority 2020, dated 2026).
pIC50, pKd: −log10 of the molar value.

Assays:
KRas G12D [1] = biological target: T1, KRas G12D (Homo sapiens, UniProt P01116, G12D); experiment: KRas G12D Binding Assay (TR-FRET displacement of labeled tracer); parameters: corresponding to amino acids 1:169, produced at Array BioPharma; biotin (protein is biotinylated); conditions: TR-FRET displacement of Cy5 labelled tracer, biotinylated GDP-loaded KRAS G12D (aa 1:169), 60 minute incubation at 22° C.
Procedure, shortened: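 Biotinylated GDP-loaded human KRAS G12D (aa 1–169) incubated with Cy5 tracer, Eu-streptavidin and compound (2% DMSO final) in 50 mM HEPES pH 7.5, 5 mM MgCl2, 0.005% Tween-20, 1 mM DTT, 60 min at 22 °C. TR-FRET ratio converted to percent of control; IC50 at 50 POC from 4-parameter logistic fit.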
Target sequence in this assay (P01116 1-169 isoform P01116-2 G12D): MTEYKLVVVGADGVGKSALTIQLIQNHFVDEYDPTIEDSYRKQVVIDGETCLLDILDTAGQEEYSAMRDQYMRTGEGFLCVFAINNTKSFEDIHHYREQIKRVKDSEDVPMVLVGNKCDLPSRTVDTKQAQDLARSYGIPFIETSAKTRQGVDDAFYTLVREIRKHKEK

KRas G12D [2] = biological target: T1, KRas G12D; experiment: KRas G12D Surface Plasmon Resonance (SPR) Binding Assay; conditions: Biacore T200, biotinylated Avidin-tagged KRAS protein on SA chip, 20 C, 1:1 binding model
Procedure, shortened: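 Biotinylated Avi-tagged KRAS G12D was captured on a streptavidin chip; compounds were injected as 3-fold dilution series in HBS-Mg buffer, pH 7.5, with DMSO at 20 C (60 s contact, 120 s dissociation). Binding constants came from 1:1 model fits.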
Target sequence in this assay (P01116 1-188 isoform P01116-2 G12D): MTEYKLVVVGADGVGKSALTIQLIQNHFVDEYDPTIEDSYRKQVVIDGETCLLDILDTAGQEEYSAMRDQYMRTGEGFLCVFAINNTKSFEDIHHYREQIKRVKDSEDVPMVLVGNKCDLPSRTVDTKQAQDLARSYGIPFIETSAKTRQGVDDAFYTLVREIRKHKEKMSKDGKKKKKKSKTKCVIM

[3] = test system: KRas G12D-mediated Phosphorylation of ERK; experiment: Inhibition of KRas G12D-mediated Phosphorylation of ERK in AGS cells; format: cell-based; conditions: Homo sapiens; AGS cells expressing G12D, 3 hours, phospho-ERK normalized to GAPDH
Procedure, shortened: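 AGS cells (endogenous KRas G12D) were treated with compounds for 3 h in 0.5% DMSO, then fixed, permeabilized and immunostained. The phospho-ERK (Thr202/Tyr204) signal was normalized to GAPDH in-cell by infrared detection and expressed as % of DMSO control. IC50 came from a 4-parameter fit.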

Compound | pIC50 (KRas G12D [1]) | pKd (KRas G12D [2]) | pIC50 [3]
CN1CCC[C@H]1COc1nc2c(c(N3C[C@H]4C[C@@H](O)[C@@H](C3)N4)n1)CCN(c1cc(O)cc3ccccc13)C2 (single isomer, unassigned) [Example 54] | 7.39 | 3.30 | 5.95
CN1CCC[C@H]1COc1nc2c(c(N3C[C@H]4CC[C@@H](C3)N4)n1)CCN(c1cc(O)cc3cccc(Cl)c13)C2 [Example 28, 4-(4-((1R,5S)-3,8-diazabicyclo[3.2.1]octan-3-yl)-2-(((S)-1-methylpyrrolidin-2-yl)methoxy)-5,8-dihydropyrido[3,4-d]pyrimidin-7(6H)-yl)-5-chloronaphthalen-2-ol] | 8.92 | < 3.00 | 6.44
Fc1ccc2cccc(N3CCc4c(nc(OCC56CCCN5CCC6)nc4N4C[C@H]5CC[C@@H](C4)N5)C3)c2c1Cl [Example 62, 4-((1R,5S)-3,8-diazabicyclo[3.2.1]octan-3-yl)-7-(8-chloro-7-fluoronaphthalen-1-yl)-2-((tetrahydro-1H-pyrrolizin-7a(5H)-yl)methoxy)-5,6,7,8-tetrahydropyrido[3,4-d]pyrimidine] | 9.00 | 8.09 | 5.71
Oc1cc(N2CCc3c(nc(OCC45CCCN4CCC5)nc3N3C[C@H]4CC[C@@H](C3)N4)C2)c2ccccc2c1 [Example 31, 4-(4-((1R,5S)-3,8-diazabicyclo[3.2.1]octan-3-yl)-2-((tetrahydro-1H-pyrrolizin-7a(5H)-yl)methoxy)-5,8-dihydropyrido[3,4-d]pyrimidin-7(6H)-yl)naphthalen-2-ol] | 8.42 | 9.10 | 5.79
CN1CCC[C@H]1COc1nc2c(c(N3C[C@H]4CC[C@@H](C3)N4)n1)CCN(c1cc(C(F)F)cc3ccccc13)C2 [Example 56, 4-((1R,5S)-3,8-diazabicyclo[3.2.1]octan-3-yl)-7-(3-(difluoromethyl)naphthalen-1-yl)-2-(((S)-1-methylpyrrolidin-2-yl)methoxy)-5,6,7,8-tetrahydropyrido[3,4-d]pyrimidine] | < 5.00 | 4.05 | < 4.78
